# Measured values as given in US4992442A, “Pyrrolo(3,2-e)pyrazolo(1,5-a)pyrimidine derivative and medicine comprising the same” (Pola Chemical Industries Inc., Japan, priority 1988, dated 1991).
# Assays:
# coronary artery [1] = experiment: Vasodilative activity, Magnus method, dog coronary artery ring contracted with U-46619; details: for IC50: Canis lupus familiaris, U-46619 1×10^-7 M, read-out: 50% Contraction-inhibitive Concentrations; for vasodilative activity, times stronger than trapidil: U-46619, relative to trapidil
# Experimental: (§1) Vasodilative activity of the compound of the present invention was measured by the Magnus method.
# (§2) A bastard, male, adult dog weighing about 8-10 kg was anesthetized with pentobarbital sodium (25 mg/kg, i.v.) and killed by bleeding. Its basilar and coronary arteries were immediately extracted. […] Static tensions of the ring were isometrically measured and recorded.
# (§3) Test compounds were accumulatively given to specimens contracted with 1×10^-7 M (final concentration) U-46619 to the final concentration of 1×10^-7 to 1×10^-4 M to investigate their vasodilative activities.
# [2] = Acute toxicity test, oral, mice; details: mouse, in vivo, ICR male mice, 14 days observation
# Experimental: An acute toxicity test on compounds of the present invention was performed according to the following method.
# ICR male mice were purchased at 4 weeks of age and fed for 10 days before testing. The test compound suspended in 1% methylcellullose solution was orally administered using a metallic gaster probe at a dose of 0.1 ml (as the test compound) per […] of body weight. The mice were fasted for 15 hours before the administration. Observation was made for 14 days after the administration, and the LD50 value was determined from the survival rate by the Richfield Wilcoxin method.
# trachea [3] = experiment: Tracheal expansion activity against acetyl choline (ACh) induced tracheal contraction; design: species or system Hartley guinea pig; details: for IC50: Cavia porcellus, ACh 1×10^-6 M, read-out: 50% Contraction-inhibitive Concentration, ACh Contraction; for Ratio of Effectiveness, ACh Contraction: reverse ratio of 50% contraction-inhibitive concentration to that of theophylline
# From the text: (§6) Tracheal expansion activity against tracheal contraction induced by acetyl choline (ACh) and histamine (His)
# (§7) A Hartley guinea pigs (male, weight: 400-500 g) was killed by bleeding and its trachea was immediately extracted. […] Static tensions was isometrically measured.
# coronary artery [4] = experiment: Vasodilative activity, Magnus method, dog coronary artery contracted with PGF2 α; details: Canis lupus familiaris; PGF2 α 5×10^-6 M; read-out: 50% Contraction-inhibitive Concentrations, Coronary Artery, PGF2 α
# Experimental: as §2, §3
# (§4) The vasodilative activity and coronary blood flow increase activity were respectively measured according to the following Methods 1 and 2.
# (§5) The same Magnus method was used as in Experimental Example 1, except that instead of 1×10^-7 M (final concentration) U-46619, 5×10^-6 M (final concentration), PGF2 α or 60 mM potassium chloride was used.
# coronary artery [5] = experiment: Vasodilative activity, Magnus method, dog coronary artery contracted with potassium chloride; details: Canis lupus familiaris; 60 mM potassium chloride; read-out: 50% Contraction-inhibitive Concentrations, Coronary Artery, KCl
# Experimental: as §2, §3, §4, §5
# basilar artery [6] = experiment: Vasodilative activity, Magnus method, dog basilar artery ring contracted with U-46619; details: for IC50: Canis lupus familiaris, U-46619 1×10^-7 M, read-out: 50% Contraction-inhibitive Concentrations; for vasodilative activity, times stronger than trapidil: U-46619, relative to trapidil
# Experimental: as §1, §2, §3
# basilar artery [7] = experiment: Vasodilative activity, Magnus method, dog basilar artery contracted with potassium chloride; details: Canis lupus familiaris; 60 mM potassium chloride; read-out: 50% Contraction-inhibitive Concentrations, Basilar Artery, KCl
# Experimental: as §2, §3, §4, §5
# coronary blood flow = experiment: Coronary blood flow increase activity in anesthetized dog; type: in vivo; details: maximum flow relative to before administration
# From the text: as §4
# The heart was exposed by an incision into pericardium through the left quartus costa rib. About 1 cm of a coronary vessel was peeled off from the surrounding tissues at about 1 cm from the left ramus circumplexus and a blood flow meter probe was installed for measuring the coronary blood flow. Left ventricle pressure, heart rate, right femoral artery pressure, and lower extremity blood flow rate were monitored. All test compounds were intravenously administered.
# The maximum coronary blood flow rates achieved after the administration as a percentage of the blood flow before administration was taken as the coronary blood flow increase activity.
# basilar artery [8] = experiment: Vasodilative activity, Magnus method, dog basilar artery contracted with PGF2 α; details: Canis lupus familiaris; PGF2 α 5×10^-6 M; read-out: 50% Contraction-inhibitive Concentrations, Basilar Artery, PGF2 α
# Experimental: as §2, §3, §4, §5
# trachea [9] = experiment: Tracheal expansion activity against histamine (His) induced tracheal contraction; design: species or system Hartley guinea pig; details: for IC50: Cavia porcellus, His 1×10^-6 M, read-out: 50% Contraction-inhibitive Concentration, His Contraction; for Ratio of Effectiveness, His Contraction: reverse ratio of 50% contraction-inhibitive concentration to that of theophylline
# From the text: as §6, §7
Structure (SMILES),IC50 (coronary artery [1]) [µM],"vasodilative activity, times stronger than trapidil (coronary artery [1]) [times]",LD50 at 336 h [2] [mg/kg],IC50 (trachea [3]) [µM],"Ratio of Effectiveness, ACh Contraction (trachea [3])",IC50 (coronary artery [4]) [µM],IC50 (coronary artery [5]) [µM],IC50 (basilar artery [6]) [µM],"vasodilative activity, times stronger than trapidil (basilar artery [6]) [times]",IC50 (basilar artery [7]) [µM],"Rate of Coronary Blood Flow Increase, 50 μg/kg (iv) (coronary blood flow) [%]","Rate of Coronary Blood Flow Increase, 100 μg/kg (iv) (coronary blood flow) [%]",IC50 (basilar artery [8]) [µM],IC50 (trachea [9]) [µM],"Ratio of Effectiveness, His Contraction (trachea [9])"
"Cc1nc2c(C#N)cnn2c2c1CCN2C(C)(C)C [Compound No. 1, 8-tert-butyl-3-cyano-6,7-dihydro-5-methyl-8H-pyrrolo[3,2-e]pyrazolo[1,5-a]pyrimidine]",1.6,39,≥ 2000,0.2,25.0,1.3,> 100,2.7,37,> 100,51.9 ± 11.9,181.6 ± 27.8,1.6,1.3,4.9
"Cc1nc2c(C#N)c(C)nn2c2c1CCN2C(C)(C)C [Compound No. 2, 8-tert-butyl-3-cyano-6,7-dihydro-2,5-dimethyl-8H-pyrrolo[3,2-e]pyrazolo[1,5-a]pyrimidine]",1.8,35,≥ 2000,–,–,–,–,2.7,37,–,–,–,–,–,–
"CCCCN1CCc2c(C)nc3c(C#N)cnn3c21 [Compound No. 3, 8-butyl-3-cyano-6,7-dihydro-5-methyl-8H-pyrrolo [3,2-e]pyrazolo[1,5-a]pyrimidine]",–,–,≥ 1000,–,–,> 100,> 100,–,–,34,11.5 ± 4.6,37.9 ± 16.3,> 100,30,2.1
"Cc1nc2c(C#N)cnn2c2c1CCN2CC(C)C [Compound No. 4, 8-iso-butyl-3-cyano-6,7-dihydro-5-methyl-8H-pyrrolo [3,2-e]pyrazolo[1,5-a]pyrimidine]",–,–,≥ 1000,–,–,25,100,–,–,43,20.4 ± 6.3,52.8 ± 21.1,> 100,–,–
"CCC(C)N1CCc2c(C)nc3c(C#N)cnn3c21 (centres unmarked) [Compound No. 5, 8-sec-butyl-3-cyano-6,7-dihydro-5-methyl-8H-pyrrolo [3,2-e]pyrazolo[1,5-a]pyrimidine]",–,–,≥ 1000,0.5,10.0,3.2,> 100,–,–,> 100,8.2 ± 3.7,27.3 ± 5.2,2.5,0.4,15.8
"CCCCCN1CCc2c(C)nc3c(C#N)cnn3c21 [Compound No. 6, 3-cyano-6,7-dihydro-5-methyl-8-pentyl-8H-pyrrolo [3,2-e]pyrazolo[1,5-a]pyrimidine]",–,–,≥ 1000,3.2,1.6,> 100,> 100,–,–,> 100,7.3 ± 3.1,15.4 ± 5.7,> 100,16,0.4
"CCCCCCN1CCc2c(C)nc3c(C#N)cnn3c21 [Compound No. 7, 3-cyano-6,7-dihydro-8-hexyl-5-methyl-8H-pyrrolo [3,2-e]pyrazolo[1,5-a]pyrimidine]",–,–,≥ 1000,6.3,0.8,> 100,> 100,–,–,85,–,–,> 100,13,0.5
"Cc1nc2c(C#N)cnn2c2c1CCN2C1CCCC1 [Compound No. 8, 3-cyano-8-cyclopentyl-6,7-dihydro-5-methyl-8H-pyrrolo [3,2-e]pyrazolo[1,5-a]pyrimidine]",–,–,≥ 1000,0.13,38.5,0.2,> 100,–,–,> 100,–,–,> 100,1,6.3
"Cc1nc2c(C#N)cnn2c2c1CCN2CC1CCCCC1 [Compound No. 9, 3-cyano-8-cyclohexylmethyl-6,7-dihydro-5-methyl-8H-pyrrolo[3,2-e]pyrazolo[1,5-a]pyrimidine]",–,–,≥ 1000,0.79,6.3,> 100,> 100,–,–,> 100,–,–,> 100,–,–
"Cc1nc2c(C#N)cnn2c2c1CCN2N1CCOCC1 [Compound No. 10, 3-cyano-6,7-dihydro-5-methyl-8-(4-morpholyl)-8H-pyrrolo[3,2-e]yrazolo[1,5-a]pyrimidine]",–,–,≥ 1000,1.3,3.9,> 100,> 100,–,–,> 100,–,–,> 100,5,1.3
"Cc1nc2ccnn2c2c1CCN2C(C)(C)C [Compound No. 11, 8-tert-butyl-6,7-dihydro-5-methyl-8H-pyrrolo[3,2-e]pyrazolo[1,5-a]pyrimidine]",–,–,≥ 1000,–,–,3.2,16,–,–,10,–,–,7.9,6.3,1.0
"Cn1c(=O)c2[nH]cnc2n(C)c1=O [Theophylline, reference compound]",–,–,–,5,–,–,–,–,–,–,–,–,–,6.3,–
